Experimental data reported in ChEMBL document CHEMBL4406853 (Eur J Med Chem, 2019).

Tests used:
[1] = molecular target: T1, Kappa-type opioid receptor (Homo sapiens, UniProt P41145); assay: Inhibition of kappa opioid receptor (unknown origin) assessed as increase in beta arrestin 2 recruitment
[2] = molecular target: T1, Kappa-type opioid receptor; assay: Inhibition of kappa opioid receptor (unknown origin) assessed as effect on ERK2 phosphorylation
[3] = molecular target: T1, Kappa-type opioid receptor; assay: Inhibition of kappa opioid receptor (unknown origin) assessed as effect on ERK2 phosphorylation relative to control
[4] = molecular target: T1, Kappa-type opioid receptor; assay: Inhibition of kappa opioid receptor (unknown origin) assessed as effect on ERK1 phosphorylation relative to control
[5] = molecular target: T1, Kappa-type opioid receptor; assay: Inhibition of kappa opioid receptor (unknown origin) assessed as increase in beta arrestin 2 recruitment relative to control
[6] = molecular target: T1, Kappa-type opioid receptor; assay: Inhibition of kappa opioid receptor (unknown origin) assessed as effect on ERK1 phosphorylation
[7] = molecular target: T1, Kappa-type opioid receptor; assay: Inhibition of kappa opioid receptor (unknown origin) by [35S]-GTPgammaS binding assay; assay type: functional

T1 sequence (P41145 whole entry): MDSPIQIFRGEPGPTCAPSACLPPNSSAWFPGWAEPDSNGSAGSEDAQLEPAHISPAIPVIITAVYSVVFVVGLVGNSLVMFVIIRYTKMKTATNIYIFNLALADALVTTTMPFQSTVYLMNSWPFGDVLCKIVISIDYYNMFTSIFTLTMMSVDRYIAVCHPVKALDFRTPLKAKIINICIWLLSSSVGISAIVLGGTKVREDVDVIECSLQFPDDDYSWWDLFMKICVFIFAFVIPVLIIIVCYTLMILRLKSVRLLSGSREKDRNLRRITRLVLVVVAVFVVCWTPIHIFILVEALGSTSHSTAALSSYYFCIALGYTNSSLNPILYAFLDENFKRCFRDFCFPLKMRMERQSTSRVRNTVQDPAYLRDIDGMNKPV

SMILES: Ic1ccc(CSc2nnc(-c3ccccn3)n2Cc2ccccn2)cc1
- EC50 [1]: 10100 nM
- EC50 [2]: 107 nM
- Emax [3]: 109%
- Emax [4]: 109%
- Emax [5]: 101%
- EC50 [6]: 107 nM
- EC50 [7]: 75.5 nM
